Read-outs that look alike come from different tables or passages of the source.
How the values were obtained:
[1] = Microsomal stability assay, rat liver microsomes;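 further: rat liver microsomes (0.25 mg/mL) with about 1 µM compound plus 1 mM NADPH, pH 7.4, 37 °C for 30 min, parent left measured by LC-MS/MS against 0 min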
[2] = biological target: Beta Secretase enzyme (BACE) (Homo sapiens, UniProt P56817); experiment: In vitro enzymatic BACE FRET (fluorescence resonance energy transfer) assay; type: biochemical;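 further: fluorescence read after 1 h with 50 nM quenched peptide substrate spanning the BACE cleavage site, in pH 4.2 acetate buffer containing 10% DMSO and nonionic detergent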
Chain of Beta Secretase enzyme (BACE) (P56817 46-501): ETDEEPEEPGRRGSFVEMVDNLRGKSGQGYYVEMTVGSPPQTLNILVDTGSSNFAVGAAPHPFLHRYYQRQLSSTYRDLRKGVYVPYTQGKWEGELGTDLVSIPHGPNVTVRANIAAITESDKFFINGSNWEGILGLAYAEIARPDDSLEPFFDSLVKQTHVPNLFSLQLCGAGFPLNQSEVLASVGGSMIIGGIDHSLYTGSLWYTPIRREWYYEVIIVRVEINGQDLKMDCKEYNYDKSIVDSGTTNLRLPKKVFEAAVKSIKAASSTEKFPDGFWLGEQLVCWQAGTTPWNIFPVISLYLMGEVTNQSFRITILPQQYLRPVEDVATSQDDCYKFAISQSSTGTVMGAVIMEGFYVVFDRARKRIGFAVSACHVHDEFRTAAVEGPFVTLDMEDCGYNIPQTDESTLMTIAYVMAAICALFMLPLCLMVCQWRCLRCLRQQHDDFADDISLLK

CYP3A4 (CYP3A) = CYP3A4 (CYP3A) (Homo sapiens, UniProt P08684); experiment: in vitro; details: microsomes, pH 7.4;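 further: inhibition of CYP3A-mediated 1-hydroxymidazolam formation after 10 min incubation with NADPH, quantified by HPLC MS relative to metabolite produced without test compound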
Chain of CYP3A4 (CYP3A) (P08684 2-503): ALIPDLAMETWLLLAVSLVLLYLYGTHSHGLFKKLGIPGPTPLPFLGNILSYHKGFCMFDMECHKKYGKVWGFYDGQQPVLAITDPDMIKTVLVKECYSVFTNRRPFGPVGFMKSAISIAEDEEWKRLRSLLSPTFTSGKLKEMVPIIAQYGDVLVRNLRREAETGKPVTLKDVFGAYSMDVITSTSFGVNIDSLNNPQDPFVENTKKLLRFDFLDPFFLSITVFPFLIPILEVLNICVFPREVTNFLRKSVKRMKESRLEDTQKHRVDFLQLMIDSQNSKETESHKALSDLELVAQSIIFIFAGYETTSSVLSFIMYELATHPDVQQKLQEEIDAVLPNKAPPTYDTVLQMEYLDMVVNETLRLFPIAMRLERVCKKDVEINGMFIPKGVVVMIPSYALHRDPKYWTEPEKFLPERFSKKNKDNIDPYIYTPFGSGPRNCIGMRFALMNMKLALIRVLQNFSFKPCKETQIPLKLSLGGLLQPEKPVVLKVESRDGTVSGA

[3] = Microsomal stability assay, human liver microsomes;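 further: pooled human liver microsomes at 0.25 mg/mL with 1 µM compound and NADPH at 37 °C, pH 7.4, for 30 min, unchanged parent quantified by LC-MS/MS against the 0 min sample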
CYP2D6 = CYP2D6 (Homo sapiens, UniProt P10635); experiment: CYP2D6 inhibition assay (bufuralol, pooled human liver microsomes)
Chain of CYP2D6 (P10635 whole entry): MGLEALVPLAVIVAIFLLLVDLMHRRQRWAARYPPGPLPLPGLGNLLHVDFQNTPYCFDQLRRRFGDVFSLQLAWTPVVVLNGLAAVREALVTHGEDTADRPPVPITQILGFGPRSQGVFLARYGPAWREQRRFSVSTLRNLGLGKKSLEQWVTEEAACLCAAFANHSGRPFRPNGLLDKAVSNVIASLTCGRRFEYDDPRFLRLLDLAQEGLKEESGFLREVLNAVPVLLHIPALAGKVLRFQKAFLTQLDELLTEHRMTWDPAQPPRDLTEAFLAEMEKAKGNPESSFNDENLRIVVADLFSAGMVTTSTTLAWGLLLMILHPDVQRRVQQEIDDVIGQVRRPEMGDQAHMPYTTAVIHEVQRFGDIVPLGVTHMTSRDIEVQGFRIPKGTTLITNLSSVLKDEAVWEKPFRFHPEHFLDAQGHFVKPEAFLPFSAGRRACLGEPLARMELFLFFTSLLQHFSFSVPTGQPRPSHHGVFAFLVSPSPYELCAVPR

[4] = tested on: Aβ40 in conditioned medium of cells stably expressing Amyloid Precursor Protein (APP); experiment: In vitro BACE cell-based assay (Aβ40 in conditioned medium, sandwich ELISA);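 further: compounds added as a dilution series, secreted peptide quantified by europium time-resolved fluorescence readout, potency fitted from percent of control versus compound concentration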
[5] = BACE enzyme assay, read-out: BACE1 FRET assay
[6] = 2D6 IC50 (uM), CYP enzyme inhibition
[7] = read-out: BACE1 FRET assay (IC50)
[8] = Homo sapiens, HEK293, HEK cells, read-out: HEK cell assay (IC50)
[9] = Homo sapiens, HEK293, HEK cells, read-out: HEK cell assay
[10] = 2D6 IC50, CYP enzyme inhibition
[11] = BACE enzyme assay, IC50's in uM, read-out: BACE1 FRET assay

Question: What does the source list for COCC(=O)N[C@@H](Cc1ccc2c(c1)OCO2)[C@H](O)CN[C@H]1CC2(CCC2)Oc2ccc(C[C@@H](C)F)cc21 [compound 498]?
Answer: RLM ([1]; rat liver microsomal data): 206 µL/min/mg; IC50 [2, 5]: 0.268 µM; IC50 (CYP3A4 (CYP3A)): 500 nM; HLM ([3]; human liver microsomal data): 119 µL/min/mg; IC50 (CYP2D6; [6]): 0.7 µM; IC50 ([4]; HEK cells, read-out: HEK cell assay): 0.377 µM

Question: For CC(=O)N[C@@H](Cc1cc(Br)c2c(c1)OCO2)[C@H](O)CN[C@H]1CC2(CCC2)Oc2ncc(CC(C)(C)F)cc21 [compound 624], which RLM ([1]; rat liver microsomes) is on record?
Answer: The RLM was 150 µL/min/mg.

Question: What about the IC50 [2, 7] of the same compound?
Answer: The IC50 was 0.2 µM.

Question: And the IC50 (CYP3A4 (CYP3A))?
Answer: The IC50 was 160 nM.

Question: And the HLM ([3]; human liver microsomes)?
Answer: The HLM was 48 µL/min/mg.

Question: And the IC50 (CYP2D6; 2D6 IC50, CYP2D6 inhibition)?
Answer: Its IC50 is 1.2 µM.

Question: What about the IC50 [4, 8] of the same compound?
Answer: Its IC50 is 0.081 µM.

Question: With CC(C)Cc1cnc2c(c1)[C@@H](NC[C@@H](O)[C@H](Cc1ccc3c(c1)OCO3)NC(=O)[C@H]1CCCO1)CC1(CCC1)O2 [compound 551] as the compound, how does the “RLM” value ([1]; rat liver microsomal data) read?
Answer: The value was 112 µL/min/mg.

Question: And the IC50 [2, 5]?
Answer: The IC50 was 0.044 µM.

Question: And the IC50 (CYP3A4 (CYP3A))?
Answer: The IC50 was 100 nM.

Question: What about the “HLM” value ([3]; human liver microsomal data) of the same compound?
Answer: Its value is 33 µL/min/mg.

Question: What about the IC50 (CYP2D6; [6]) of the same compound?
Answer: The IC50 was 5.7 µM.

Question: And the IC50 [4, 9]?
Answer: Its IC50 is 0.367 µM.

Question: For CC(=O)N[C@@H](Cc1cc(F)cc(F)c1)[C@H](O)CN[C@H]1CC2(CCC2)Oc2c(-c3ccncc3)cc(Cl)cc21 [compound 582], which RLM ([1]; rat liver microsomes) is on record?
Answer: Its RLM is 829 µL/min/mg.

Question: What about the IC50 [2, 7] of the same compound?
Answer: Its IC50 is 0.024 µM.

Question: And the IC50 (CYP3A4 (CYP3A))?
Answer: The IC50 was 100 nM.

Question: And the HLM ([3]; human liver microsomes)?
Answer: Its HLM is 97 µL/min/mg.

Question: What about the IC50 (CYP2D6; 2D6 IC50, CYP2D6 inhibition) of the same compound?
Answer: The IC50 was 0.4 µM.

Question: And the IC50 [4, 8]?
Answer: Its IC50 is 0.057 µM.

Question: For CO[C@H](C)C(=O)N[C@@H](Cc1cc(F)cc(F)c1)[C@H](O)CN[C@H]1CC2(CCC2)Oc2c(-c3nccs3)cc(CC(C)C)cc21 [compound 459], which RLM ([1]; rat liver microsomal data) is on record?
Answer: The RLM was 399 µL/min/mg.

Question: And the IC50 ([2]; Table 2, read-out: BACE1 FRET assay)?
Answer: Its IC50 is 0.004 µM.

Question: And the IC50 (CYP3A4 (CYP3A))?
Answer: The IC50 was 400 nM.

Question: What about the HLM ([3]; human liver microsomal data) of the same compound?
Answer: The HLM was 399 µL/min/mg.

Question: And the IC50 (CYP2D6; [10])?
Answer: Its IC50 is 10.2 µM.

Question: What about the IC50 ([4]; Homo sapiens, HEK293, Table 2, HEK cells, read-out: HEK cell assay) of the same compound?
Answer: The IC50 was 0.046 µM.

Question: Which results are given for COCC(=O)N[C@@H](Cc1cc(F)cc(-c2nccs2)c1)[C@H](O)CN[C@H]1CC2(CCC2)Oc2ncc(C3CC3)cc21 [compound 749]?
Answer: RLM ([1]; rat liver microsomes): 51 µL/min/mg; IC50 ([2]; BACE enzyme assay IC50, read-out: BACE1 FRET assay): 0.046 µM; IC50 (CYP3A4 (CYP3A)): 300 nM; HLM ([3]; human liver microsomes): 59 µL/min/mg; IC50 (CYP2D6; 2D6 IC50 (uM), CYP2D6 inhibition): 1.6 µM; IC50 ([4]; Homo sapiens, HEK293, HEK cell-based assay IC50, read-out: HEK cell assay): 0.074 µM

Question: Which “RLM” value ([1]; rat liver microsomal data) does the source give for COCC(=O)N[C@@H](Cc1cccc(F)c1)[C@H](O)CN[C@H]1CC2(CCC2)Oc2c1cc(CC(C)(C)C)cc2-n1ccnc1 [compound 505] here?
Answer: The value was 153 µL/min/mg.

Question: What about the IC50 [2, 5] of the same compound?
Answer: The IC50 was 0.019 µM.

Question: And the IC50 (CYP3A4 (CYP3A))?
Answer: The IC50 was 100 nM.

Question: What about the “HLM” value ([3]; human liver microsomal data) of the same compound?
Answer: The value was 51.5 µL/min/mg.

Question: And the IC50 (CYP2D6; [6])?
Answer: The IC50 was 1.9 µM.

Question: What about the IC50 [4, 9] of the same compound?
Answer: The IC50 was 0.006 µM.

Question: Which “RLM” value ([1]; rat liver microsomal data) does the source give for COCC(=O)N[C@@H](Cc1ccccc1)[C@H](O)CN[C@H]1CC2(CCC2)Oc2c1cc(CC(C)C)cc2-n1ccnc1 [compound 546] here?
Answer: The value was 267 µL/min/mg.

Question: And the IC50 [2, 5]?
Answer: Its IC50 is 0.025 µM.

Question: What about the IC50 (CYP3A4 (CYP3A)) of the same compound?
Answer: Its IC50 is 100 nM.

Question: What about the “HLM” value ([3]; human liver microsomal data) of the same compound?
Answer: The value was 75 µL/min/mg.

Question: And the IC50 (CYP2D6; [6])?
Answer: Its IC50 is 3.8 µM.

Question: What about the IC50 [4, 9] of the same compound?
Answer: Its IC50 is 0.033 µM.

Question: For CC(=O)N[C@@H](Cc1ccc(F)cc1)[C@H](O)CN[C@H]1CC2(CCC2)Oc2ncc(C(F)(F)C(C)(C)C)cc21 [compound 570], which “RLM” value ([1]; rat liver microsomal data) is on record?
Answer: The value was 162 µL/min/mg.

Question: What about the IC50 [2, 5] of the same compound?
Answer: The IC50 was 0.136 µM.

Question: And the IC50 (CYP3A4 (CYP3A))?
Answer: Its IC50 is 800 nM.

Question: And the “HLM” value ([3]; human liver microsomal data)?
Answer: The value was 101 µL/min/mg.

Question: And the IC50 (CYP2D6; [6])?
Answer: Its IC50 is 7.1 µM.

Question: And the IC50 [4, 9]?
Answer: Its IC50 is 0.405 µM.

Question: With CCO[C@H](C)C(=O)N[C@@H](Cc1ccc2c(c1)OCO2)[C@H](O)CN[C@H]1CC2(CCC2)Oc2ncc(CC(C)C)cc21 [compound 808] as the compound, how does the “RLM” value ([1]; rat liver microsomal data) read?
Answer: Its value is 179 µL/min/mg.

Question: And the IC50 [2, 11]?
Answer: Its IC50 is 0.138 µM.

Question: What about the IC50 (CYP3A4 (CYP3A)) of the same compound?
Answer: Its IC50 is 100 nM.

Question: What about the “HLM” value ([3]; human liver microsomal data) of the same compound?
Answer: Its value is 49 µL/min/mg.

Question: And the IC50 (CYP2D6; [6])?
Answer: Its IC50 is 2.3 µM.

Question: What about the IC50 ([4]; Homo sapiens, HEK293, HEK cell-based assay, IC50's in uM, read-out: HEK cell assay) of the same compound?
Answer: Its IC50 is 0.414 µM.

Question: What does the source list for CCOCC(=O)N[C@@H](Cc1cc(F)cc(-c2nccs2)c1)[C@H](O)CN[C@H]1CC2(CCC2)Oc2ncc(CC(C)(C)C)cc21 [compound 862, N-((1S,2R)-3-(((4′S)-6′-(2,2-dimethylpropyl)-3′,4′-dihydrospiro[cyclobutane-1,2′-pyrano[2,3-b]pyridin]-4′-yl)amino)-1-(3-fluoro-5-(1,3-thiazol-2-yl)benzyl)-2-hydroxypropyl)-2-ethoxyacetamide]?
Answer: RLM ([1]; rat liver microsomal data): 64 µL/min/mg; IC50 [2, 11]: 0.004 µM; IC50 (CYP3A4 (CYP3A)): 300 nM; HLM ([3]; human liver microsomal data): 43 µL/min/mg; IC50 (CYP2D6; [10]): 0.65 µM; IC50 ([4]; Homo sapiens, HEK293, cell-based assay, HEK cells, IC50's in uM, read-out: HEK cell assay): 0.009 µM

Reference: patent US8163909B2, “Substituted hydroxyethyl amine compounds as beta-secretase modulators and methods of use” (Amgen Inc., priority 2007, dated 2012)
